Experimental data as given in publication PMC9457600, “Synthesis, Leishmanicidal, Trypanocidal, Antiproliferative Assay and Apoptotic Induction of (2-Phenoxypyridin-3-yl)naphthalene-1(2H)-one Derivatives” (Molecules, 2022).

Columns and labels:
VERO cells = assay: MTT cytotoxicity on VERO cells; type: cell-based, African green monkey; conditions: Chlorocebus sabaeus, 72 h
Experimental: (§1) Vero cells were derived from the kidney of an African green monkey, cells were maintained in Dulbecco’s Modified Eagle’s Medium (DMEM), supplemented with 10% heat-inactivated FBS and penicillin-streptomycin solution 1% at 37 °C, 5% CO2 atmosphere and > 95% humidity. We evaluated through a colorimetric method the effect of compounds 8–23 on the promastigotes of L. brasiliensis. Briefly, 96-well plates were used, where 2 × 10^6 parasites/mL were seeded. A concentration of 50 μM was used for each compound and an incubation time of 96 h at 29 °C. 3-(4,5-dimethylthiazol-2-yl)-2,5-diphenyl tetrazolium bromide (MTT) 1 μg/mL was added and incubated in darkness for 4 h, acidic isopropanol (4N) was added and the plate was read at 570 nm in a spectrophotometer Synergy HT (Biotek). Miltefosine was used as a reference drug. The EC50 calculation of the selected compound was performed using growth curves. Direct counting was used to monitor the proliferation of parasites, three independent experiments were performed for each concentration of the compounds evaluated. The in vitro evaluations of compounds toxicity by MTT in VERO and BMDM cells follow a methodology described above with some modifications. The selectivity index was calculated with SI = CC50/EC50, where CC50 was the maximum concentration range of compounds 10, 21–23 used to evaluate cytotoxicity in VERO and BMDM cells. The trypanocidal activity of compounds 8–23 was evaluated on the viability of T. cruzi epimastigotes through a colorimetric method adapted with minor modifications. 2 × 10^6 parasites/mL were seeded in a 96-well plate, adding 50 μM of each derivative dissolved in DMSO (final concentration remained below 1%). The plate was incubated for 96 h at 29 °C. Then, 1 μg/mL of 3-(4,5-dimethylthiazol-2-yl)-2,5-diphenyl tetrazolium bromide (MTT) was added and incubated in darkness for 4 h. After this time, acidic isopropanol (4N) was added and the plate was read at 570 nm in a spectrophotometer Synergy HT (Biotek). Benznidazole was used as a reference drug. The in vitro evaluations of compounds toxicity by MTT in VERO and BMDM cells follow a methodology described above with some modifications. Cells were counted in suspension and seeded at 20 × 10^3 cells/well. The test was carried out in triplicate on 96-well microplates in different concentrations: 50 μM, 100 μM, 200 μM and 300 μM, untreated cells and reference drug (benznidazole) controls.

[1] = system: epimastigotes of Trypanosoma cruzi strain MHOM/VE/92/YBM; assay: MTT viability of T. cruzi epimastigotes; type: cell-based; conditions: for EC50: 72 h, epimastigotes
HCT-116 = assay: MTS antiproliferative assay HCT116; type: cell-based; conditions: Homo sapiens, 72 h of incubation
Description: (§2) The cell lines used were acquired from the American Type Culture Collection (ATCC), CCRF-CEM (T lymphoblastic leukemia), K562 ([…]), U2OS (osteosarcoma), HCT116 (colon carcinoma), A549 (lung adenocarcinoma) and HCT116p53−/− (HCT116 cell line mutated in p53) Horizon Discovery Ltd., (Waterbeach, Cambridge, United Kingdom).
(§3) In our laboratory, IMTM, we generated the daunorubicin-resistant subline of CCRF-CEM cells (CEM-DNR bulk) and paclitaxel-resistant subline K562-TAX, as described previously. […] Both ABC transporters are involved in drug resistance. As a control, human fibroblasts MRC-5 and BJ cell lines were used. […] Adherent cells were passaged using PBS containing 0.25% trypsin plus 0.01% EDTA (ethylenediamine tetraacetic acid) every 2–3 days.
(§4) The antiproliferative activity of compounds was determined using a standard 3-(4,5-dimethylthiazol-2yl)-5-(3-carboxymethoxyphenyl)-2-(4-sulfophenyl)-2H-tetrazolium (MTS) reduction assay on a robotic high throughput screening platform (HighResBio, Boston, MA, USA) following treatment of cells for 3–7 days. The IC50 values were calculated from the appropriate dose–response curves with Dotmatics software (San Diego, CA, USA).

CEM-DNR = assay: MTS antiproliferative assay CEM-DNR; type: cell-based; conditions: Homo sapiens, 72 h of incubation, daunorubicin-resistant
Description: as §2, §3, §4

U2OS = assay: MTS antiproliferative assay U2OS; type: cell-based; conditions: Homo sapiens, 72 h of incubation
Description: as §2, §3, §4

A549 = assay: MTS antiproliferative assay A549; type: cell-based, human; conditions: Homo sapiens, A549, 72 h, 72 h of incubation
Description: as §2, §3, §4

MRC-5 = assay: MTS assay on non-malignant MRC-5; type: cell-based; conditions: MRC5; noncancerous human cell line
Experimental: as §3, §4

CCRF-CEM = assay: MTS antiproliferative assay CCRF-CEM; type: cell-based; conditions: Homo sapiens, 72 h of incubation
Description: as §2, §3, §4

K562 = assay: MTS antiproliferative assay K562; type: cell-based, human; conditions: Homo sapiens, K562, 72 h, 72 h of incubation
Description: as §2, §3, §4

[2] = system: promastigotes of Leishmania (V.) braziliensis strain MHOM/CO/87/UA301; assay: MTT viability of L. braziliensis promastigotes; type: cell-based
Experimental: Promastigotes of Leishmania (V.) braziliensis strain MHOM/CO/87/UA301 were isolated from footpad lesions in Balb/C mice previously infected. In the process of maintenance and differentiation of the parasites, the LTI medium (tryptose 15 g/L, yeast extract 5 g/L, liver extract 2 g/L, hemin-NaOH 0.02 g/L, glucose 4 g/L, NaCl 9 g/L, KCl 0.4 g/L Na2HPO4, 7.5 g/L at pH 7.4) supplemented with 10% fetal calf serum and maintained at 29 °C was used.
Briefly, 96-well plates were used, where 2 × 10^6 parasites/mL were seeded. A concentration of 50 μM was used for each compound and an incubation time of 96 h at 29 °C. 3-(4,5-dimethylthiazol-2-yl)-2,5-diphenyl tetrazolium bromide (MTT) 1 μg/mL was added and incubated in darkness for 4 h, acidic isopropanol (4N) was added and the plate was read at 570 nm in a spectrophotometer Synergy HT (Biotek). Miltefosine was used as a reference drug. The EC50 calculation of the selected compound was performed using growth curves. Direct counting was used to monitor the proliferation of parasites, three independent experiments were performed for each concentration of the compounds evaluated. The in vitro evaluations of compounds toxicity by MTT in VERO and BMDM cells follow a methodology described above with some modifications [60].

BMDM macrophages = assay: MTT cytotoxicity on BMDM macrophages; type: cell-based; conditions: Mus musculus, 72 h
Description: as §1, with “T. cruzi epimastigotes MHOM/VE/92/YBM venezuelan strain” for “Vero cells”, “used to test” for “derived from”, “anti T. cruzi in vitro studies. The strain was” for “kidney of an African green monkey, cells were”, “a modified LIT medium” for “Dulbecco’s Modified Eagle’s Medium (DMEM), supplemented”, “fetal bovine serum (FBS). Mouse bone marrow was used to obtain BMDM macrophages. Mouse fibroblast-conditioned medium L-929 was used for the differentiation” for “heat-inactivated FBS”, “maintenance of BMDM macrophages.” for “penicillin-streptomycin solution 1% at 37 °C, 5% CO2 atmosphere and > 95% humidity.”

K562-TAX = assay: MTS antiproliferative assay K562-TAX; type: cell-based, human; conditions: Homo sapiens, K562-Tax, 72 h, 72 h of incubation; paclitaxel-resistant
Description: as §2, §3, §4

BJ = assay: MTS assay on non-malignant BJ; type: cell-based; conditions: noncancerous human cell line
Experimental: as §3, §4

HCT116p53−/− = assay: MTS antiproliferative assay HCT116p53-/-; type: cell-based; conditions: Homo sapiens; 72 h of incubation
Description: as §2, §3, §4

Structure (SMILES) | EC50 ([1]; Trypanosoma cruzi) [µM] | IC50 (HCT-116) [µM] | IC50 (U2OS) [µM] | IC50 (A549) [µM] | IC50 (CCRF-CEM) [µM] | IC50 (K562) [µM] | IC50 (K562-TAX) [µM] | IC50 (HCT116p53−/−) [µM] | melting point [°C] | EC50 (VERO cells) [µM] | IC50 (CEM-DNR) [µM] | IC50 (MRC-5) [µM] | EC50 ([2]; 72 h, promastigotes) [µM] | EC50 ([2]; promastigotes, 72 h) [µM] | EC50 (BMDM macrophages) [µM] | IC50 (BJ) [µM] | also measured
O=C(Cn1ccnc1[N+](=O)[O-])NCc1ccccc1 [Bnz, benznidazole, reference compound] | 30 ± 0.7 | – | – | – | – | – | – | – | – | 120 ± 2.3 | – | – | – | – | – | – | SIV/Tc selectivity index on T. cruzi/VERO ([1]; SI = CC50/EC50): 4
O=C1/C(=C/c2cccnc2Oc2ccccc2)CCc2ccccc21 [Compound 8, (E)-3,4-Dihydro-2-[(2-phenoxypyridin-3-yl)methylene]naphthalen-1(2H)-one] | > 60 | > 50 | > 50 | > 50 | 4.15 ± 0.74 | > 50 | 20 ± 2.16 | > 50 | – | > 100 | 38.2 ± 6.26 | > 50 | ≤ 60 | 57.6 ± 1.62 | > 1000 | > 50 | –
COc1cccc2c1CC/C(=C\c1cccnc1Oc1ccccc1)C2=O [Compound 9, (E)-3,4-Dihydro-5-methoxy-2-[(2-phenoxypyridin-3-yl)methylene]naphthalen-1(2H)-one] | > 60 | 24.8 ± 3.77 | 19.6 ± 3.65 | 30 ± 5.83 | 6.15 ± 0.84 | 19.6 ± 3.67 | 24.1 ± 6.02 | 20.2 ± 3.1 | – | < 100 | 26.3 ± 7.95 | > 50 | ≥ 60 | > 60 | > 1000 | > 50 | –
CCCCCCCCCCCCCCCCOP(=O)([O-])OCC[N+](C)(C)C [Mil, miltefosine, reference compound] | – | – | – | – | – | – | – | – | – | – | – | – | 25 ± 1.4 | – | 125 ± 4.7 | – | SIB/Lb selectivity index on L. braziliensis/BMDM ([2]; SI = CC50/EC50): 5

The next lines start with results.

EC50 ([1]; Trypanosoma cruzi) [µM] | IC50 (HCT-116) [µM] | IC50 (U2OS) [µM] | IC50 (A549) [µM] | IC50 (CCRF-CEM) [µM] | IC50 (K562) [µM] | IC50 (K562-TAX) [µM] | IC50 (HCT116p53−/−) [µM] | melting point [°C] | Structure (SMILES) | EC50 (VERO cells) [µM] | IC50 (CEM-DNR) [µM] | IC50 (MRC-5) [µM] | EC50 ([2]; 72 h, promastigotes) [µM] | EC50 ([2]; promastigotes, 72 h) [µM] | EC50 (BMDM macrophages) [µM] | IC50 (BJ) [µM] | also measured
> 60 | > 50 | > 50 | > 50 | 13.2 ± 1.82 | 44.6 ± 3.67 | 30.1 ± 7.28 | > 50 | 134 | COc1ccc2c(c1)CC/C(=C\c1cccnc1Oc1ccccc1)C2=O [Compound 10, (E)-3,4-Dihydro-6-methoxy-2-[(2-phenoxypyridin-3-yl)methylene]naphthalen-1(2H)-one] | 89 ± 15 | 33.7 ± 6.78 | > 50 | – | – | < 1000 | > 50 | SIV/Lb selectivity index on L. braziliensis/VERO ([2]; SI = CC50/EC50): 4
> 60 | > 50 | > 50 | > 50 | 8.79 ± 0.76 | > 50 | > 50 | > 50 | 136 | COc1ccc2c(c1)C(=O)/C(=C/c1cccnc1Oc1ccccc1)CC2 [Compound 11, (E)-3,4-Dihydro-7-methoxy-2-[(2-phenoxypyridin-3-yl)methylene]naphthalen-1(2H)-one] | < 100 | 45.1 ± 7.9 | > 50 | ≥ 60 | > 60 | < 1000 | > 50 | –
< 60 | 26.2 ± 2.4 | 27.9 ± 4.13 | 37 ± 3.98 | 6.07 ± 0.63 | 23.6 ± 2.55 | 32.5 ± 2.93 | 25.6 ± 3.77 | 130 | O=C1/C(=C/c2cccnc2Oc2ccc(Cl)cc2)CCc2ccccc21 [Compound 20, (E)-2-{[2-(4-Chlorophenoxy)pyridin-3-yl]methylene}-3,4-dihydronaphthalen-1(2H)-one] | > 1000 | 28.2 ± 4.83 | > 50 | ≥ 60 | > 60 | > 1000 | > 50 | EC50 [1]: 57.4 ± 3.6 µM
< 60 | 38.1 ± 5.44 | 46.8 ± 4.26 | 46.9 ± 4.02 | 10.4 ± 2.46 | 32.7 ± 3.67 | 23.6 ± 8.79 | 31.1 ± 4.45 | – | COc1cccc2c1CC/C(=C\c1cccnc1Oc1ccc(Cl)cc1)C2=O [Compound 21, (E)-2-{[2-(4-Chlorophenoxy)pyridin-3-yl]methylene}-3,4-dihydro-5-methoxynaphthalen-1(2H)-one] | 103 ± 15 | 35.8 ± 4.25 | > 50 | 9.24 ± 1 | – | > 1000 | > 50 | EC50 [1]: 35.5 ± 10 µM
4.91 ± 0.98 | > 50 | > 50 | > 50 | 15.7 ± 1.54 | > 50 | 16.1 ± 4.44 | > 50 | 160 | COc1ccc2c(c1)C(=O)/C(=C/c1cccnc1Oc1ccc(Cl)cc1)CC2 [Compound 23, (E)-2-{[2-(4-Chlorophenoxy)pyridin-3-yl]methylene}-3,4-dihydro-7-methoxynaphthalen-1(2H)-one] | 100 ± 16 | 23.9 ± 4.98 | > 50 | 5.69 ± 2.65 | – | > 1000 | > 50 | SIV/Tc selectivity index on T. cruzi/VERO ([1]; SI = CC50/EC50): 20; selectivity index T. cruzi vs BMDM (CC50/EC50) ([1]; SI = CC50/EC50): > 204; SIB/Lb selectivity index on L. braziliensis/BMDM ([2]; SI = CC50/EC50): 176; SIV/Lb selectivity index on L. braziliensis/VERO ([2]; SI = CC50/EC50): 18
